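96-well plates; 48 h exposure; 5 concentrations. Endpoints by linear interpolation between flanking doses. Not reached: highest tested concentration assigned. GI50 marks 50% less growth.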 Active and inactive are the calls of the source. Cut-off read from the data, not from the text of the source: active = GI50 up to about 1.1 µM and inactive = higher.

Test systems include U-251; 786-0; UO-31; M14; MDA-MB-435; LOX IMVI; KM12; SK-MEL-2; BT-549; SK-OV-3; TK-10; OVCAR-4; SNB-75; UACC-62; NCI-H226; A549; SNB-19; RXF 393; SF-539; HCC 2998.
Holding throughout (assay): DTP human tumour cell line panel, 48 h

In the case of `O=c1c(-c2ccccc2)c(SCCO)n(-c2ccccc2)c(=S)n1-c1ccccc1`, the GI50 in the experiment on U-251, in the experiment with 786-0, with UO-31, with M14, with MDA-MB-435 and in the experiment with LOX IMVI was > 100 µM (inactive) throughout. In addition, the GI50 in the experiment on KM12, with SK-MEL-2, in the experiment on BT-549, in the experiment with SK-OV-3, in the experiment with TK-10 and with OVCAR-4 was > 100 µM (inactive) throughout. Further, the GI50 – broadly, the concentration giving 50% growth inhibition – in the experiment with SNB-75 was 39.6 µM (inactive); in the experiment on UACC-62, 39.7 µM (inactive); in the experiment with NCI-H226 it was > 100 µM (inactive); in the experiment with A549, > 100 µM (inactive); with SNB-19 it was > 100 µM (inactive).

`Oc1ccc(Cl)cc1/N=N\c1c(O)ccc2ccccc12`: the GI50 with RXF 393, with U-251, in the experiment with 786-0, in the experiment with UO-31, in the experiment with M14 and with MDA-MB-435 was > 100 µM (inactive) each time. Further, the GI50 is 60.7 µM (inactive) in the experiment with LOX IMVI; > 100 µM (inactive) in the experiment on KM12; > 100 µM (inactive) with SK-MEL-2; > 100 µM (inactive) in the experiment on BT-549; > 100 µM (inactive) in the experiment on SK-OV-3; > 100 µM (inactive) in the experiment with TK-10. Further, the GI50 in the experiment on OVCAR-4, with SNB-75, with UACC-62, with NCI-H226, in the experiment on A549 and in the experiment with SNB-19 was > 100 µM (inactive) throughout.

Turning to `COC(=O)Cc1c(C2=Nc3ccccc3C2(O)CC(=O)OC)[nH]c2ccccc12` (configuration not stated), the GI50 in the experiment with RXF 393 was 97.9 µM (inactive); in the experiment on U-251 it was 34.5 µM (inactive); with 786-0, 41.5 µM (inactive); in the experiment on SF-539, 29.6 µM (inactive); in the experiment with UO-31, 68.5 µM (inactive); with M14 it was 78.2 µM (inactive). The GI50 with MDA-MB-435 was > 100 µM (inactive); in the experiment with LOX IMVI, 99.3 µM (inactive); in the experiment on KM12, 58.6 µM (inactive); with SK-MEL-2 it was > 100 µM (inactive); with BT-549 it was > 100 µM (inactive); with SK-OV-3, > 100 µM (inactive). The GI50 in the experiment on TK-10 was > 100 µM (inactive); in the experiment with SNB-75 it was > 100 µM (inactive); with UACC-62, > 100 µM (inactive); in the experiment with NCI-H226, > 100 µM (inactive); in the experiment on A549, 94 µM (inactive); in the experiment on SNB-19, 55.8 µM (inactive).

For the compound `Cc1ccc(S(=O)(=O)Nc2ccccc2C=O)cc1`, the GI50 is 25.6 µM (inactive) with RXF 393; 13.1 µM (inactive) in the experiment with U-251; 16.3 µM (inactive) in the experiment on 786-0; 0.569 µM (active) in the experiment with SF-539; 10.7 µM (inactive) in the experiment with UO-31; 19.3 µM (inactive) in the experiment with M14. The GI50 with MDA-MB-435 was 10.5 µM (inactive); in the experiment with LOX IMVI it was 13.8 µM (inactive); in the experiment on KM12, 16.1 µM (inactive); in the experiment with SK-MEL-2 it was 11.9 µM (inactive); in the experiment on BT-549, 18.6 µM (inactive); with SK-OV-3, 26.8 µM (inactive). Also, the GI50 in the experiment on TK-10 was 17.9 µM (inactive); in the experiment on OVCAR-4, 16.4 µM (inactive); in the experiment on SNB-75, 18.3 µM (inactive); in the experiment on UACC-62 it was 12.5 µM (inactive); in the experiment with NCI-H226, 14.6 µM (inactive); with A549 it was 27.1 µM (inactive). Besides, the GI50 in the experiment with SNB-19 was 21.5 µM (inactive).

As for `CC(C)(C)c1cc(C2=NNC(c3ccccc3)C2)cc(C(C)(C)C)c1O` (configuration not stated), the GI50 in the experiment on RXF 393 is 10.1 µM (inactive); in the experiment on U-251, 15.5 µM (inactive); in the experiment on 786-0 it was 14.3 µM (inactive); in the experiment on SF-539, 19.8 µM (inactive); in the experiment with UO-31 it was 15 µM (inactive); in the experiment on M14, 17.2 µM (inactive). For the same compound, the GI50 in the experiment with MDA-MB-435 was 12.8 µM (inactive); with LOX IMVI it was 15.9 µM (inactive); in the experiment on KM12, 13.6 µM (inactive); in the experiment with SK-MEL-2 it was 14.8 µM (inactive); in the experiment with BT-549, 17.1 µM (inactive); in the experiment on SK-OV-3, 18.5 µM (inactive). For the same compound, the GI50 was 15.9 µM (inactive) in the experiment on TK-10; 14.2 µM (inactive) in the experiment on OVCAR-4; 10.3 µM (inactive) in the experiment on SNB-75; 13.5 µM (inactive) in the experiment with UACC-62; 17.2 µM (inactive) in the experiment with NCI-H226; 15.3 µM (inactive) in the experiment on A549. In addition, the GI50 in the experiment on SNB-19 is 18 µM (inactive).

Take `O=C1Nc2ccccc2S/C1=C\c1ccccc1C(F)(F)F`: the GI50 with RXF 393 is > 100 µM (inactive); in the experiment with U-251, 71.9 µM (inactive); in the experiment with 786-0, 44.1 µM (inactive); with SF-539, 72.8 µM (inactive); in the experiment with UO-31, > 100 µM (inactive); in the experiment with M14 it was > 100 µM (inactive). Besides, the GI50 is > 100 µM (inactive) in the experiment with MDA-MB-435; > 100 µM (inactive) in the experiment on LOX IMVI; > 100 µM (inactive) with KM12; > 100 µM (inactive) in the experiment with SK-MEL-2; 59.7 µM (inactive) in the experiment on BT-549; 89.5 µM (inactive) with SK-OV-3. In addition, the GI50 was 40.6 µM (inactive) with TK-10; 18.8 µM (inactive) with OVCAR-4; 34.4 µM (inactive) in the experiment with SNB-75; > 100 µM (inactive) in the experiment on UACC-62; > 100 µM (inactive) in the experiment with NCI-H226; > 100 µM (inactive) with A549. In addition, in the experiment on SNB-19, the GI50 was > 100 µM (inactive).

Take `OC(/C(=N/c1ccccc1)c1ccccc1)c1ccccc1` (configuration not stated): the GI50 with RXF 393 is 12.3 µM (inactive); in the experiment with U-251, 4.1 µM (inactive); in the experiment with 786-0, 10.8 µM (inactive); with SF-539 it was 11.3 µM (inactive); in the experiment on UO-31 it was 18 µM (inactive); in the experiment with M14, 4.8 µM (inactive). Moreover, the GI50 was 2.75 µM (inactive) with MDA-MB-435; 12.4 µM (inactive) in the experiment with LOX IMVI; 2.72 µM (inactive) with KM12; 2.26 µM (inactive) with SK-MEL-2; 2.68 µM (inactive) in the experiment on BT-549; 22.2 µM (inactive) in the experiment on SK-OV-3. For the same compound, the GI50 with TK-10 was 2.72 µM (inactive); with OVCAR-4, 10.2 µM (inactive); with SNB-75, 5.6 µM (inactive); with UACC-62, 3.57 µM (inactive); with NCI-H226, 10.8 µM (inactive); in the experiment on A549 it was 11.3 µM (inactive). In the experiment with SNB-19, the GI50 is 6.52 µM (inactive).

On to `Cc1nn(-c2ccccc2)c2c1C(c1cc3ccccc3nc1Cl)NC(=S)N2` (configuration not stated), for which the GI50 in the experiment on RXF 393 was 26.3 µM (inactive); with U-251, 23.4 µM (inactive); with 786-0 it was 33 µM (inactive); in the experiment on SF-539, 24.8 µM (inactive); in the experiment with UO-31, 20.8 µM (inactive); with M14, > 100 µM (inactive). In addition, the GI50 is 29 µM (inactive) in the experiment on MDA-MB-435; 22.6 µM (inactive) in the experiment on LOX IMVI; 30.7 µM (inactive) in the experiment with KM12; 14.5 µM (inactive) in the experiment with SK-MEL-2; 47.4 µM (inactive) in the experiment with BT-549; 97.5 µM (inactive) in the experiment with SK-OV-3. In addition, the GI50 in the experiment with TK-10 was 58.5 µM (inactive); in the experiment with OVCAR-4, 65.3 µM (inactive); with SNB-75, 82.2 µM (inactive); with UACC-62 it was 76.7 µM (inactive); with NCI-H226 it was > 100 µM (inactive); in the experiment with A549 it was > 100 µM (inactive). Further, the GI50 with SNB-19 was 57.3 µM (inactive).

In the case of `CC[C@H](NC1=C(Cl)C(=O)c2c(O)ccc(O)c2C1=O)C(=O)OC`, the GI50 in the experiment with U-251 is 6.12 µM (inactive); in the experiment with 786-0 it was 4.69 µM (inactive); in the experiment with SF-539, 3.44 µM (inactive); with M14 it was 3.72 µM (inactive); with MDA-MB-435, 3.26 µM (inactive); in the experiment with LOX IMVI, 3.64 µM (inactive). Besides, the GI50 with KM12 was > 10 µM (inactive); with SK-MEL-2 it was > 10 µM (inactive); in the experiment with BT-549, > 10 µM (inactive); with SK-OV-3, > 10 µM (inactive); with TK-10, > 10 µM (inactive); with OVCAR-4, 7.71 µM (inactive). Moreover, the GI50 in the experiment with SNB-75, in the experiment on UACC-62, with NCI-H226, in the experiment with A549 and with SNB-19 was > 10 µM (inactive) each time.

Turning to `c1cc2nnc1SCCSCCSc1ccc(nn1)SCCSCCS2`, the GI50 in the experiment with RXF 393 was > 100 µM (inactive); with HCC 2998, > 100 µM (inactive); in the experiment with U-251, > 100 µM (inactive); in the experiment with 786-0, > 100 µM (inactive); in the experiment on SF-539, 25.4 µM (inactive); with UO-31, > 100 µM (inactive). Besides, the GI50 with M14, in the experiment on MDA-MB-435, with LOX IMVI, with KM12, with SK-MEL-2 and with SK-OV-3 was > 100 µM (inactive) each time. For the same compound, the GI50 in the experiment on TK-10 was > 100 µM (inactive); in the experiment with OVCAR-4 it was > 100 µM (inactive); in the experiment with SNB-75 it was 18.5 µM (inactive); in the experiment with UACC-62 it was > 100 µM (inactive); with NCI-H226, > 100 µM (inactive); in the experiment with A549, > 100 µM (inactive). Besides, the GI50 with SNB-19 is > 100 µM (inactive).

`CCCCCCCCCCCCOC1C(COCCN2CCCC2)OC2OC(C)(C)OC21` (configuration not stated): the GI50 was 1.57 µM (inactive) in the experiment on RXF 393; 1.73 µM (inactive) in the experiment on U-251; 1.68 µM (inactive) in the experiment with 786-0; 1.76 µM (inactive) in the experiment on SF-539; 1.6 µM (inactive) with UO-31; 1.85 µM (inactive) with M14. In addition, the GI50 was 1.76 µM (inactive) with MDA-MB-435; 1.4 µM (inactive) in the experiment on LOX IMVI; 1.71 µM (inactive) in the experiment on SK-MEL-2; 1.66 µM (inactive) with BT-549; 1.63 µM (inactive) with SK-OV-3; 1.66 µM (inactive) in the experiment on TK-10. Moreover, the GI50 was 2.03 µM (inactive) in the experiment on OVCAR-4; 1.83 µM (inactive) with SNB-75; 1.91 µM (inactive) in the experiment on UACC-62; 2.56 µM (inactive) in the experiment with NCI-H226; 4.42 µM (inactive) in the experiment on A549; 2.94 µM (inactive) in the experiment with SNB-19.

The record behind these values is ChEMBL document CHEMBL1201862, “PubChem BioAssay data set” (2004).
